Earlier results as cited in patent publication US20030180282A1, “Method of treatment of thrombotic events” (priority 2002, published 2003).
Residues, ends and D or L forms follow the SMILES beside them.

Legend:
[1] = coadministration with thrombolytic therapy

Row | SMILES | effect on reocclusion and recurrent ischemia [1] | incidence of death and reinfarction (IMPACT-AMI, all patients randomized, placebo 7.3%) [%] | major hemorrhage (in vivo) [%]
1 | CC(=O)Oc1ccccc1C(=O)O [aspirin] | approximate halving of frequency | – | –
2 | N=C(N)NCCCC[C@@H]1NC(=O)CCSSC[C@@H](C(N)=O)NC(=O)[C@@H]2CCCN2C(=O)[C@H](Cc2c[nH]c3ccccc23)NC(=O)[C@H](CC(=O)O)NC(=O)CNC1=O [eptifibatide] (HELM PEPTIDE1{[O=C(CCS[*:3])[*:2]].[N=C(N)NCCCC[C@H](N[*:1])C(=O)[*:2]].G.D.W.P.C.[am]}$PEPTIDE1,PEPTIDE1,1:R3-7:R3$$$V2.0) | – | 8.0 | 7.1
